Test results reported in patent US20030220369A1, “Heterocyclic sulfonamide derivatives and their use for potentiating glutamate receptor function” (priority 2003, published 2003).

melting point: 86 to 87 °C
Compound: CC(C)S(=O)(=O)NCC(C)(F)c1ccc(-c2cccc3c2CC(=O)N3)cc1 (stereo not shown) [Example 9, 4-[4-(1-fluoro-1-methyl-2-{[methylethyl)sulfonylamino}-ethyl)phenyl]indolin-2one]
